Assay results reported in US4877727A, “Substrate for determining leucine aminopeptidase or gamma-glutamyltranspeptase activity” (Kyowa Medex Co., Ltd., priority 1984, dated 1989).
In brackets after ≈: the same amount, converted by molar mass.

How the values were obtained:
Type in all cases: physicochemical
[1] = Maximum wavelength of formed pigment
Protocol: 50 μl of 1 mM each free compound was added to 3 ml of 0.1M phosphate buffer containing 0.5 mg/ml EMSE and 1 U/ml laccase and the mixture was incubated at 37° C. for 5 minutes. The absorption of the reaction solution at λmax was measured. As a control, 5-aminosalicylic acid was used and the reaction of the compound with 2,6-xylenol was carried out in the presence of metaperiodate under strong alkaline conditions.

Stability of pigment = assay: Stability of pigment
Solubility of substrate = details: read-out: S: Solubility

Row | SMILES | λmax: Maximum wavelength [1] | ST: Stability of pigment (Stability of pigment) | solubility (Solubility of substrate)
1 | CCN(CC(O)CS(=O)(=O)O)c1ccc(NC(=O)[C@@H](N)CC(C)C)cc1 (stereo partly drawn) [compound 6] | 740 nm | > 98% | 90 mg/mL (≈ 232 mM)
2 | CC(C)C[C@H](N)C(=O)Nc1ccc(N(CCS(=O)(=O)O)CCS(=O)(=O)O)c(C#N)c1 [compound 11] | 640 nm | 95% | > 200 mg/mL
3 | Cc1cc(NC(=O)[C@@H](N)CC(C)C)ccc1N(CCS(=O)(=O)O)CCS(=O)(=O)O [compound 12] | 715 nm | > 98% | > 200 mg/mL

More lines, now with the values ahead:

Row | λmax: Maximum wavelength [1] | ST: Stability of pigment (Stability of pigment) | solubility (Solubility of substrate) | SMILES
4 | 680 nm | 93% | > 200 mg/mL | CC(C)C[C@H](N)C(=O)Nc1ccc(N(CCCS(=O)(=O)O)CCCS(=O)(=O)O)c(S(=O)(=O)O)c1 [compound 8]
5 | 685 nm | > 98% | 125 mg/mL (≈ 250 mM) | CC(C)C[C@H](N)C(=O)Nc1ccc(N(CCCS(=O)(=O)O)CCCS(=O)(=O)O)c(Cl)c1 [compound 10]
6 | 705 nm | > 98% | > 200 mg/mL | COC(=O)c1cc(NC(=O)[C@@H](N)CC(C)C)ccc1N(CCCCS(=O)(=O)O)CCCCS(=O)(=O)O [compound 13]
7 | 720 nm | > 98% | > 200 mg/mL | COc1cc(N(CCCCS(=O)(=O)O)CCCCS(=O)(=O)O)c(C)cc1NC(=O)[C@@H](N)CC(C)C [compound 14]
